Data as given in patent US20220177476A1, “Crystal Forms of (S)-4-(8-amino-3-(1-(but-2-ynoyl)-pyrrolidin-2-yl)imidazo[1,5-a]pyrazin-1-yl)-n-(pyridin-2-yl)benzamide” (Acerta Pharma B.V., priority 2015, published 2022).
Read-outs that look alike come from different tables or passages of the source.

Columns and labels:
[1] = Dynamic vapor sorption (DVS); assay type: physicochemical; conditions: for hygroscopicity according to the European Pharmacopoeia (EP) classification: weight increase at 80% RH; for water content at the end of the DVS test: by weight
Protocol: A gravimetric vapor sorption study was run using a standard procedure. Samples were run using a dynamic vapor sorption (DVS) analyzer. Sample sizes were approximately 10 mg. A moisture adsorption-desorption isotherm was performed as outlined below.

[2] = for Solubility (mg/mL) after 24 hours equilibration: pure water at 25° C., pH 3.6-4.1
[3] = Aqueous solubility of salts after three hours equilibration without pH adjustment; assay type: physicochemical; conditions: water
Protocol: Characterization of fumarate salt, maleate salt, phosphate salt and L-tartrate salt was conducted using ^1H NMR spectroscopy, TG-FTIR, DSC, dynamic vapor sorption, optical microscopy, high-performance liquid chromatography (HPLC) purity, laser diffraction, approximate bulk and tapped density, and aqueous solubility analytical techniques.

[4] = Bulk and tapped density of salts; assay type: physicochemical; conditions: 10 gram sample
[5] = Relative stability of solid forms (water activity, suspension equilibration, storage); assay type: physicochemical; conditions: for Stability at Room Temperature: crystalline forms of the free base
Excerpt: Critical water activity is a measure of the relative thermodynamic stability of Form I in comparison to the trihydrate Form II. […] Suspension equilibration experiments in ethanol-water mixtures, each having a different water activity, affirmed this conclusion. Water activities included in the experiments were maintained at: about 0.35 (ethanol-water ratio of 95:5, PP502-P32), about 0.53 (ethanol-water ratio of 9:1, PP502-P33) and about 0.77 (ethanol-water ratio of 7:3, PP502-P34).
Because the DVS results of Form II indicate reversible moisture sorption-desorption behavior (see above), tests were performed to confirm that storage of the dehydrated Form II sample (i.e., Form IV) at about 60% RH would again lead to the trihydrate form (Form II). […]

[6] = Plasma exposure after single oral administration in fasted beagle dogs; assay type: in vivo; conditions: nine fasted beagle dogs, single oral administration of 6 mg/kg, oral capsule
Protocol: The plasma exposure of Forms I and II of the free base of Formula (1) were compared in nine fasted beagle dogs after a single oral administration of 6 mg/kg of either form using batches with a similar particle size distribution. The experiment was performed in 5 weekly phases, with the Form II phase last. […] There was a good in vitro in vivo correlation for the dissolution rates of Form 1 and Form II, and the performance of each form of Formula (1) when delivered by oral capsule to dogs.

[7] = Intrinsic dissolution rate (paddle over stationary disc); assay type: physicochemical
Protocol: The intrinsic dissolution rate (IDR) was measured for Forms I and II of the free base of Formula (1). IDR was measured using a paddle over stationary disc equipped dissolution apparatus with concentration determined using liquid chromatographic analysis against a standard. […] Form I has an IDR of 6.8 mg/cm^2/min in simulated gastric fluid (SGF) (pH 1.2) and an IDR of 0.44 mg/cm^2/min in pH 2.5 HCl/NaCl buffer. Form II has an IDR of 5.4 mg/cm^2/min in SGF and an IDR of 0.35 mg/cm^2/min in pH 2.5 HCl/NaCl buffer.

[8] = Aqueous solubility after equilibrating at 25° C. for three days (HPLC); assay type: physicochemical; conditions: water, equilibrated at 25° C. for three days, HPLC of filtered solution
Protocol: Finally, Form II was tested with respect to solubilities in various water-solvent mixtures and non-aqueous solvents. […] High-performance liquid chromatography (HPLC) was used to determine the concentration of Form II in the filtered solution at approximately 14 μg/mL, which translates into a critical water activity (aw) of about 0.59.

SMILES: CC#CC(=O)N1CCC[C@H]1c1nc(-c2ccc(C(=O)Nc3ccccn3)cc2)c2c(N)nccn12.O=C(O)/C=C\C(=O)O [Maleate, (S)-4-(8-amino-3-(1-(but-2-ynoyl)pyrrolidin-2-yl)imidazo[1,5-α]pyrazin-1-yl)-N-(pyridin-2-yl)benzamide maleate]
- Behavior in DVS: Δm (20-80% RH) [1]: fumarate, Δm~0.7%
- maximum water content (saturation) at about 95% RH ([1]; DVS): approximately 5.8%
- water content change between 20% and 80% RH ([1]; DVS): about 0.5%
- solubility ([2]; 0.1 N HCl, Sigma #71763, pH after 24 hours 1.8): 37000 µg/mL
- solubility ([2]; borate buffer (sample pH9), pH after 24 hours 4.7): 1200 µg/mL
- solubility ([2]; buffer pH 5, pH after 24 hours 4.8): 4300 µg/mL
- solubility ([2]; citrate buffer pH 3, pH after 24 hours 3.2): 8000 µg/mL
- solubility ([2]; phosphate buffer pH 7, KH2PO4 (sample pH6.8), pH after 24 hours 4.8): 1200 µg/mL
- solubility ([2]; phosphate buffer pH 7, KH2PO4 (sample pH7.4), pH after 24 hours 5.0): 800 µg/mL
- Solubility (mg/mL) after 24 hours equilibration [2]: 2.3 mg/mL
- Solubility (3 hours) [3]: 2200 µg/mL
- Bulk density [4]: 0.35 g/mL
- Tapped density [4]: 0.45 g/mL

SMILES: CC#CC(=O)N1CCC[C@H]1c1nc(-c2ccc(C(=O)Nc3ccccn3)cc2)c2c(N)nccn12 [amorphous Formula (1), (S)-4-(8-amino-3-(1-(but-2-ynoyl)pyrrolidin-2-yl)imidazo[1,5-α]pyrazin-1-yl)-N-(pyridin-2-yl)benzamide]
- total mass gained up to 95% RH ([1]; DVS): approximately 13%
- total weight gain observed between 0% RH and 80% RH ([1]; DVS): about 6%
- hygroscopicity according to the European Pharmacopoeia (EP) classification ([1]; DVS): hygroscopic (hygroscopic: ≥2% and <15%)

SMILES: CC#CC(=O)N1CCC[C@H]1c1nc(-c2ccc(C(=O)Nc3ccccn3)cc2)c2c(N)nccn12.O=C(O)C(O)C(O)C(=O)O [L-Tartrate, (S)-4-(8-amino-3-(1-(but-2-ynoyl)pyrrolidin-2-yl)imidazo[1,5-α]pyrazin-1-yl)-N-(pyridin-2-yl)benzamide L-tartrate]
- Behavior in DVS: Δm (20-80% RH) [1]: ~0.7% (20-80% RH)
- maximum water content (saturation) at about 95% RH ([1]; DVS): approximately 5.4%
- water content at 50% RH ([1]; DVS): about 4.8%
- water content change between 20% and 80% RH ([1]; DVS): about 0.7%
- Bulk density [4]: 0.29 g/mL
- Tapped density [4]: 0.50 g/mL

SMILES: CC#CC(=O)N1CCC[C@H]1c1nc(-c2ccc(C(=O)Nc3ccccn3)cc2)c2c(N)nccn12 [Form III, (S)-4-(8-amino-3-(1-(but-2-ynoyl)pyrrolidin-2-yl)imidazo[1,5-α]pyrazin-1-yl)-N-(pyridin-2-yl)benzamide]
- Stability at Room Temperature [5]: metastable
- maximum water content (saturation) at about 95% RH ([1]; DVS): about 8.5%
- total weight gain observed between 0% RH and 80% RH ([1]; DVS): about 8%
- hygroscopicity according to the European Pharmacopoeia (EP) classification ([1]; DVS): hygroscopic (hygroscopic: ≥2% and <15%)

SMILES: CC#CC(=O)N1CCC[C@H]1c1nc(-c2ccc(C(=O)Nc3ccccn3)cc2)c2c(N)nccn12 [Form IV, (S)-4-(8-amino-3-(1-(but-2-ynoyl)pyrrolidin-2-yl)imidazo[1,5-α]pyrazin-1-yl)-N-(pyridin-2-yl)benzamide]
- Stability at Room Temperature [5]: metastable
- form after storage at 60% RH for three days (PXRD) ([5]; dehydrated Form II sample): does revert to Form II

SMILES: CC#CC(=O)N1CCC[C@H]1c1nc(-c2ccc(C(=O)Nc3ccccn3)cc2)c2c(N)nccn12 [Form V, (S)-4-(8-amino-3-(1-(but-2-ynoyl)pyrrolidin-2-yl)imidazo[1,5-α]pyrazin-1-yl)-N-(pyridin-2-yl)benzamide]
- Stability at Room Temperature [5]: metastable

SMILES: CC#CC(=O)N1CCC[C@H]1c1nc(-c2ccc(C(=O)Nc3ccccn3)cc2)c2c(N)nccn12 [Form II, (S)-4-(8-amino-3-(1-(but-2-ynoyl)pyrrolidin-2-yl)imidazo[1,5-α]pyrazin-1-yl)-N-(pyridin-2-yl)benzamide]
- critical water activity (aw) ([5]; Form I versus trihydrate Form II, room temperature, from aqueous solubilities): about 0.59
- relative thermodynamic stability of Form I and Form II ([5]; room temperature, depending on water activity): above this value Form II is more stable
- maximum water content (saturation) at about 95% RH ([1]; DVS): about 10.4%
- total weight gain observed between 0% RH and 80% RH ([1]; DVS): about 10%
- hygroscopicity according to the European Pharmacopoeia (EP) classification ([1]; DVS): hygroscopic (hygroscopic: ≥2% and <15%)
- Cmax (maximum concentration) [6]: lower Cmax (maximum concentration) than Form I in all dogs
- area under the plasma drug concentration-time curve (AUC) [6]: lower AUC than Form I in all dogs
- intrinsic dissolution rate (IDR) ([7]; pH 2.5 HCl/NaCl buffer): 0.35 mg/cm^2/min
- intrinsic dissolution rate (IDR) ([7]; simulated gastric fluid (SGF) (pH 1.2)): 5.4 mg/cm^2/min
- aqueous solubility [8]: approximately 14 μg/mL

SMILES: CC#CC(=O)N1CCC[C@H]1c1nc(-c2ccc(C(=O)Nc3ccccn3)cc2)c2c(N)nccn12.O=C(O)c1cc(O)ccc1O [gentisate salt, (S)-4-(8-amino-3-(1-(but-2-ynoyl)pyrrolidin-2-yl)imidazo[1,5-α]pyrazin-1-yl)-N-(pyridin-2-yl)benzamide gentisate]
- water content at the end of the DVS test ([1]; DVS): 5.2%

SMILES: CC#CC(=O)N1CCC[C@H]1c1nc(-c2ccc(C(=O)Nc3ccccn3)cc2)c2c(N)nccn12 [Form VII, (S)-4-(8-amino-3-(1-(but-2-ynoyl)pyrrolidin-2-yl)imidazo[1,5-α]pyrazin-1-yl)-N-(pyridin-2-yl)benzamide]
- Stability at Room Temperature [5]: metastable

SMILES: CC#CC(=O)N1CCC[C@H]1c1nc(-c2ccc(C(=O)Nc3ccccn3)cc2)c2c(N)nccn12.O=C(O)C(=O)O [oxalate salt, (S)-4-(8-amino-3-(1-(but-2-ynoyl)pyrrolidin-2-yl)imidazo[1,5-α]pyrazin-1-yl)-N-(pyridin-2-yl)benzamide oxalate]
- maximum water content (saturation) at about 95% RH ([1]; DVS): about 6.5%
- water content at 50% RH ([1]; DVS): about 5.5%

SMILES: CC#CC(=O)N1CCC[C@H]1c1nc(-c2ccc(C(=O)Nc3ccccn3)cc2)c2c(N)nccn12.O=C(O)/C=C/C(=O)O [Fumarate, (S)-4-(8-amino-3-(1-(but-2-ynoyl)pyrrolidin-2-yl)imidazo[1,5-α]pyrazin-1-yl)-N-(pyridin-2-yl)benzamide fumarate]
- Behavior in DVS: Δm (20-80% RH) [1]: ~0.8% (20-80% RH)
- maximum water content (saturation) at about 95% RH ([1]; DVS): approximately 6%
- water content change between 20% and 80% RH ([1]; DVS): about 0.8%
- Solubility (mg/mL) after 24 hours equilibration [2]: 2.1 mg/mL
- Solubility (3 hours) [3]: ~1800 µg/mL
- Bulk density [4]: 0.45 g/mL
- Tapped density [4]: 0.57 g/mL

SMILES: CC#CC(=O)N1CCC[C@H]1c1nc(-c2ccc(C(=O)Nc3ccccn3)cc2)c2c(N)nccn12.O=P(O)(O)O [Phosphate, (S)-4-(8-amino-3-(1-(but-2-ynoyl)pyrrolidin-2-yl)imidazo[1,5-α]pyrazin-1-yl)-N-(pyridin-2-yl)benzamide phosphate]
- Behavior in DVS: Δm (20-80% RH) [1]: ~0.7% (20-80% RH)
- maximum water content (saturation) at about 95% RH ([1]; DVS): approximately 6.6%
- Solubility (mg/mL) after 24 hours equilibration [2]: 15.0 mg/mL
- Solubility (3 hours) [3]: 9800 µg/mL
- Bulk density [4]: 0.33 g/mL
- Tapped density [4]: 0.48 g/mL

SMILES: CC#CC(=O)N1CCC[C@H]1c1nc(-c2ccc(C(=O)Nc3ccccn3)cc2)c2c(N)nccn12.O=C(O)CC(O)(CC(=O)O)C(=O)O [citrate salt, (S)-4-(8-amino-3-(1-(but-2-ynoyl)pyrrolidin-2-yl)imidazo[1,5-α]pyrazin-1-yl)-N-(pyridin-2-yl)benzamide citrate]
- form after suspension equilibration in water ([5]; water at 25° C. for 24 hours): conversion to Form III of the free base of Formula (1)
- water content at the end of the DVS test ([1]; DVS): about 7.5%

SMILES: CC#CC(=O)N1CCC[C@H]1c1nc(-c2ccc(C(=O)Nc3ccccn3)cc2)c2c(N)nccn12 [Form VIII, (S)-4-(8-amino-3-(1-(but-2-ynoyl)pyrrolidin-2-yl)imidazo[1,5-α]pyrazin-1-yl)-N-(pyridin-2-yl)benzamide]
- Stability at Room Temperature [5]: metastable

SMILES: CC#CC(=O)N1CCC[C@H]1c1nc(-c2ccc(C(=O)Nc3ccccn3)cc2)c2c(N)nccn12 [Form VI, (S)-4-(8-amino-3-(1-(but-2-ynoyl)pyrrolidin-2-yl)imidazo[1,5-α]pyrazin-1-yl)-N-(pyridin-2-yl)benzamide]
- Stability at Room Temperature [5]: metastable
